Data reported in patent US8518419B2, “Method of treating diabetes” (Garvan Institute of Medical Research, priority 2006, dated 2013).
“Also recorded” adds a separate entry of the source.

How the values were obtained:
diabetic recipient mouse = assay: Mouse islet transplantation into streptozotocin-diabetic mice; type: in vivo; conditions: mouse islets cultured with 125 μM DFO 2 hours before transplantation, 1 donor:1 recipient, followed 28 days
Procedure: Islets were isolated from control mice and cultured with either control media or control media plus 125 μM DFO under normoxic conditions or in control media under hypoxic conditions (5% O2) for 2 hours before transplantation. All the islets from 1 donor mouse were transplanted into 1 recipient mouse which had been rendered diabetic (random glucose>22 mM) by streptozotocin treatment.
Transplant recipients were followed for 28 days, at which time nephrectomy was performed to confirm recurrence of diabetes.

Min6 cells [1] = assay: Measurement of intracellular ATP concentrations; type: cell-based, mouse; conditions: DFO treatment
Procedure: ATP concentrations were measured in islets and in Min6 cells following exposure to low (1 mM) or high glucose (25 mM) for 30 minutes. At the 30 minute timepoint, cells were placed on ice, washed twice in ice-cold PBS and lysed and ATP was measured using a kit purchased from Roche, according to the manufacturer's instructions.

human islets = assay: Insulin release of human islets at low and high glucose; type: cell-based; conditions: DFO 4 hours, low (5 mM) and high (11 mM) glucose
Procedure: The present inventors were interested to determine whether DFO was beneficial for function of human islets. Islets were isolated from people with normal glucose tolerance and treated with control media or media supplemented with DFO for 4 hours, and insulin release subsequently measured at low (5 mM) and high (11 mM) glucose concentrations.

diabetic SCID mice = assay: Minimal mass human islet transplantation into diabetic SCID mice; type: in vivo, mouse; conditions: human islets
Procedure: Human pancreatic islets were isolated from normal glucose tolerant donors as previously described (Gunton et al., 2005). Islets were transplanted under the left kidney capsule of SCID mice which had been rendered diabetic by injection of Alloxan at 95 mg/kg intravenously. Islets were transplanted in adequate mass (2000 IEQ per mouse), or minimal mass (600 IEQ per mouse). In each of the islet isolations, 2000 control-treated IEQ per mouse was adequate to cure diabetes. As expected, 600 control-treated IEQ per mouse was not adequate to control glucose at day 28 post-transplant in any mouse. […]

Min6 cells [2] = assay: Glucose-stimulated insulin secretion (GSIS) in Min6 cells; type: cell-based, mouse; conditions: DFO treatment
Min6 cells [3] = assay: Gene expression in Min6 cells by real-time PCR; type: cell-based, mouse
Procedure: Human pancreatic islets were purified from seven normoglycemic subjects using the modified Ricordi method (Ricordi et al., 1988) as previously described (Gunton et al., 2005). The subjects are described in (Gunton et al., 2005), and were matched for age and body-mass-index. Gene expression was measured by real-time-PCR and was performed in a two-step reaction using the Invitrogen RT-for-PCR kit. The second step was performed in a fluorescent temperature cycler (ABI-Prism 7700 Sequence Detection System, Applied Biosystems) with LightCycler-RNA Master SYBR-Green-I (Roche, Mannheim, Germany) and specific primers for each of the genes (sequences available on request). Every plate included a control gene (TATA-box binding protein/TBP) for every subject. Results were analysed by unpaired t-test.
In separate experiments, treated cells were lysed, and RNA isolated for real-time-PCR.
Following treatment with HIF-1α RNAi, the present inventors measured expression of genes in the maturity onset diabetes of the young (MODY) family, insulin-signalling and glucose-uptake and glycolytic genes by real-time PCR. […] In the insulin signaling pathway, HIF-1α knockdown decreased insulin-receptor substrate (IRS)-2 mRNA (FIG. 3E).
Min6 cells were treated with DFO at the doses indicated for 4 hours.

## CC(=O)N(O)CCCCCNC(=O)CCC(=O)N(O)CCCCCNC(=O)CCC(=O)N(O)CCCCCN [DFO, desferrioxamine]
Diabetic recipient mouse
  average glucose after transplantation: 11.4 mM
Min6 cells [1]
  ATP generation: increased ATP generation; also recorded: increased ATP concentrations
Human islets
  insulin release (GSIS) of human islets: markedly increased; also recorded: markedly improved GSIS
Diabetic SCID mice; DFO 125 μM for 4 hours pre-transplantation, day 28
  success rate following transplant of 600 IEQ: 75%
Diabetic SCID mice; DFO 125 μmol/L prior to transplantation, n=8
  cure of diabetes following transplantation of 600 IEQ: 75%
Min6 cells [2]
  glucose stimulated insulin secretion (GSIS): substantial increase in GSIS
Min6 cells [3]; DFO 4 hours
  expression of ARNT: did not alter expression of the house-keeping genes TATA-box binding protein (TBP) or transthyretin, or (B) increase expression of ARNT
  expression of housekeeping genes TATA-box binding protein (TBP) and transthyretin: did not increase expression; also recorded: did not alter expression
  expression of mRNAs for Akt2, GLUT1, GLUT2, HNF4α, IRS2 and phosphoglucomutase (PGM): dose-dependently increased expression; also recorded: significantly increased expression
Min6 cells [3]; DFO 4 hours (data not shown)
  expression of HNF1α, HNF1β and insulin receptor: did not alter
Min6 cells [3]; highest dose of DFO, 4 hours
  HIF-1α mRNA expression: small but significant increase; also recorded: showed increased expression
